Common to all, as to test: KinomeScan kinase panel, single concentration 10 µM
Holding throughout (assay type): binding

Assay [1] has as its target T1, KinomeScan kinase panel (Homo sapiens, UniProt P30530).
T1 construct: purchased DiscoveRx (KinomeScan)
T1 sequence (P30530 26-894): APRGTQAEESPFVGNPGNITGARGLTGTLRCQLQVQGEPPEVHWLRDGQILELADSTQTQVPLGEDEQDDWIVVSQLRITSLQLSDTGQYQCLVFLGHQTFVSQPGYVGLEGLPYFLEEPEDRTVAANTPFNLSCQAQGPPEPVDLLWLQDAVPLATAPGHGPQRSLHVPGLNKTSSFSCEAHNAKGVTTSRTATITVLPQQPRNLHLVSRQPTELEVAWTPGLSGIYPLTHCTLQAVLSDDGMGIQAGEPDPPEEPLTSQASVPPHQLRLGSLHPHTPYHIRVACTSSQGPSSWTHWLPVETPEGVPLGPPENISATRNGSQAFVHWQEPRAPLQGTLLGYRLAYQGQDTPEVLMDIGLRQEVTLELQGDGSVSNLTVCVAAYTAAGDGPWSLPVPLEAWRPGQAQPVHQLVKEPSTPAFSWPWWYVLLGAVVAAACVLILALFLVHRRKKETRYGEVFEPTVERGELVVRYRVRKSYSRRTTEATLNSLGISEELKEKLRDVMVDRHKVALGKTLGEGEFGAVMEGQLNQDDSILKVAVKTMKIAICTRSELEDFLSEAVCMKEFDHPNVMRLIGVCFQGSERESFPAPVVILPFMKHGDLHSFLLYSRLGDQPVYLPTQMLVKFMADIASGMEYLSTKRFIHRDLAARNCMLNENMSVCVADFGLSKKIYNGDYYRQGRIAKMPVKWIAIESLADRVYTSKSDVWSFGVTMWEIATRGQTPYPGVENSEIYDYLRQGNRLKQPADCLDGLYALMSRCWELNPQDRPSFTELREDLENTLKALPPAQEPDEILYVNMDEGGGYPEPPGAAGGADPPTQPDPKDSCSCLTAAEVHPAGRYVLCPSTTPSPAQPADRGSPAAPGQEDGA
The conditions noted are these: AXL, 10 µM; read-out: score (%).

Assay [2] has as its target T2, KinomeScan kinase panel (Homo sapiens, UniProt Q16513).
T2 construct: purchased DiscoveRx (KinomeScan)
The conditions noted are these: PKN2, 10 µM; read-out: score (%).

Assay [3] concerns the target T3, KinomeScan kinase panel (Homo sapiens, UniProt Q9HC98).
T3 construct: purchased DiscoveRx (KinomeScan)
The conditions noted are these: NEK6, 10 µM; read-out: score (%).

Assay [4] deals with T4, KinomeScan kinase panel (Homo sapiens, UniProt Q9NRM7).
T4 construct: purchased DiscoveRx (KinomeScan)
T4 sequence (Q9NRM7 1-1088): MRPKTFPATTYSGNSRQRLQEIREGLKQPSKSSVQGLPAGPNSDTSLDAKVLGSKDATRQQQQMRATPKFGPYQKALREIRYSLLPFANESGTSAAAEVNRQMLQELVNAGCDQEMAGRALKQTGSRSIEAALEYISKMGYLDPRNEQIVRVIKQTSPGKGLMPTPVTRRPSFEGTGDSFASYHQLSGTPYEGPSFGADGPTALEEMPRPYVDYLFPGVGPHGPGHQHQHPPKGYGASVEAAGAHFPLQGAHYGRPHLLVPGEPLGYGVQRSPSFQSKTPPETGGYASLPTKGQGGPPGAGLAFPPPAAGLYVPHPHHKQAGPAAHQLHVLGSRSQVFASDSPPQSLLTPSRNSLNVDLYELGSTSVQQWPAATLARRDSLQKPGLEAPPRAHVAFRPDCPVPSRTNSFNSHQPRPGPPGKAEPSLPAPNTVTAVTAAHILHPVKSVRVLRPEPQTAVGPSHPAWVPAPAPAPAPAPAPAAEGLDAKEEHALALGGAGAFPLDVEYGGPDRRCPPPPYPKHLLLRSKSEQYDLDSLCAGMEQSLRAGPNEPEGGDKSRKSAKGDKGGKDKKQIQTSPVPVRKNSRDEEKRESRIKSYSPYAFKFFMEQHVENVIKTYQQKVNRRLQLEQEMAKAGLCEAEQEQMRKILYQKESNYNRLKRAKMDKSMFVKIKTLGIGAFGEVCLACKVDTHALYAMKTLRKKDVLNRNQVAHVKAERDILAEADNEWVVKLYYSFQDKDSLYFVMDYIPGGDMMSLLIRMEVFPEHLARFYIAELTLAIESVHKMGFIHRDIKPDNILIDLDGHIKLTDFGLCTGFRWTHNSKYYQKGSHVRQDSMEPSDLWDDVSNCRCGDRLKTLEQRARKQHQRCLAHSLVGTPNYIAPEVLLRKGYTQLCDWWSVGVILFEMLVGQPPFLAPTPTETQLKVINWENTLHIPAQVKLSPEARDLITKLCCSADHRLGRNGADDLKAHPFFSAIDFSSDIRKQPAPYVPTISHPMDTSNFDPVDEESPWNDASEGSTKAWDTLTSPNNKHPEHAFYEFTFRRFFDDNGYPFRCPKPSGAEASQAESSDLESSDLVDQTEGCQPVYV
To be noted: LATS2, 10 µM.

T3 sequence (Q9HC98 whole entry): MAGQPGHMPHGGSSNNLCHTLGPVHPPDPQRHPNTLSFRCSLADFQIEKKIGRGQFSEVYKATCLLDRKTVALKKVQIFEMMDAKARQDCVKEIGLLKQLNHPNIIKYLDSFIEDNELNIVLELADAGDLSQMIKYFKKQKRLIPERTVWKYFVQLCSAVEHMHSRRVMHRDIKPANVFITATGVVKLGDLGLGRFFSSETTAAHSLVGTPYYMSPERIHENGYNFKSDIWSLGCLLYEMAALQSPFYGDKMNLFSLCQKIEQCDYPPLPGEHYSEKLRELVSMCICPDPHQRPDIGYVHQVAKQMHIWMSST
T2 sequence (Q16513 whole entry): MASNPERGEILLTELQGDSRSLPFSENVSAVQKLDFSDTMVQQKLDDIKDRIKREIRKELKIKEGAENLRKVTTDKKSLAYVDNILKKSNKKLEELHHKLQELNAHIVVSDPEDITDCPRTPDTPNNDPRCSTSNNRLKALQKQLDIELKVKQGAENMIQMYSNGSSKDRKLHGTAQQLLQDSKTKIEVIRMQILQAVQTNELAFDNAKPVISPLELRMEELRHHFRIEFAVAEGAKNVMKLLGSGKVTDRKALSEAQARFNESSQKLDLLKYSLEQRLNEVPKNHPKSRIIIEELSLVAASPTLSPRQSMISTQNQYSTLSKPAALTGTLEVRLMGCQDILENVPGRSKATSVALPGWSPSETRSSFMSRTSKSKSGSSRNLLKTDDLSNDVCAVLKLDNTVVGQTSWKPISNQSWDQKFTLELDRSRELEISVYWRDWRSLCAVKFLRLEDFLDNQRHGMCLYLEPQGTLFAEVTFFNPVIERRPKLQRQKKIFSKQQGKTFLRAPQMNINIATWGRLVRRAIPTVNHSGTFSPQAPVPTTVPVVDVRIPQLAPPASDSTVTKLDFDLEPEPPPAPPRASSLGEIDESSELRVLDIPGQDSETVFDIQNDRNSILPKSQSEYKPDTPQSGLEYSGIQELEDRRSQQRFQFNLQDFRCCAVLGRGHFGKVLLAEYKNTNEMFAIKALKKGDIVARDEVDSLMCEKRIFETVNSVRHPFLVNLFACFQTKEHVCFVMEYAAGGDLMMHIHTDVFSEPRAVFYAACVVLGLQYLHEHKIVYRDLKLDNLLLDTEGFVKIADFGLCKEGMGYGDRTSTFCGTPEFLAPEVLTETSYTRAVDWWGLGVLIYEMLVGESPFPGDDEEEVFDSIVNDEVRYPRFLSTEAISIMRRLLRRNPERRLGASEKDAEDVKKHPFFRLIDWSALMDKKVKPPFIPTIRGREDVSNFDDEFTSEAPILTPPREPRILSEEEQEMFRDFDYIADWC

For `CCN1CCN(Cc2ccc(NC(=O)c3ccc(C)c(NC(=O)c4cncc(-c5cccs5)c4)c3)cc2C(F)(F)F)CC1` [ALW-II-41-27], the remaining binding at 10 µM at KinomeScan kinase panel [1], on KinomeScan kinase panel [2] and at KinomeScan kinase panel [3] was more than 30% throughout. Also, the “score (%)” value on KinomeScan kinase panel [4] is on record as “nb (Hits values higher than 30% were considered negative (no binding: nb))”.

Regarding `CCN1CCN(Cc2ccc(NC(=O)c3ccc(C)c(/C=C/c4cnc5[nH]ccc5c4Cl)c3)cc2C(F)(F)F)CC1` [HG-6-63-01, (E)-3-(2-(4-chloro-1H-pyrrolo[2,3-b]pyridin-5-yl)vinyl)-N-(4-((4-ethylpiperazin-1-yl)methyl)-3-(trifluoromethyl)phenyl)-4-methylbenzamide], the remaining binding at 10 µM on KinomeScan kinase panel [1] was 17%; on KinomeScan kinase panel [2] it was 23%; on KinomeScan kinase panel [3] it was more than 30%. The “score (%)” value on KinomeScan kinase panel [4] was “nb (Hits values higher than 30% were considered negative (no binding: nb))”.

Take `CCN1CCN(Cc2ccc(NC(=O)c3ccc(C)c(C#Cc4cccnc4)c3)cc2C(F)(F)F)CC1` [XMD15-44]: the results for the remaining binding at 10 µM on KinomeScan kinase panel [1], at KinomeScan kinase panel [2] and at KinomeScan kinase panel [3] were 2.9%, 36% and 90%, respectively. In addition, the “score (%)” value on KinomeScan kinase panel [4] turned out to be 7.6%.

Source of the values: publication PMC4457528, “Identification of Novel Small Molecule Inhibitors of Oncogenic RET Kinase” (PLoS ONE, 2015).
